Assay results: paper PMC7318222, “A Family of Water‐Immiscible, Dipolar Aprotic, Diamide Solvents from Succinic Acid” (Chemsuschem, 2020)

How the values were obtained:
[1] = target: T1, AR (Homo sapiens, UniProt P10275); test: AR-anti CALUX reporter gene assay (antagonistic mode); assay type: cell-based; parameters: key: –: no effect observed up to the highest test concentration; settings: PC20, 24 h exposure
T1 construct: expression construct for the full-length human receptor under investigation; expressed in transfected cells; host or cells: human U2-OS cells (ATCC HTB-96), stably transfected
T1 sequence (P10275 1-920): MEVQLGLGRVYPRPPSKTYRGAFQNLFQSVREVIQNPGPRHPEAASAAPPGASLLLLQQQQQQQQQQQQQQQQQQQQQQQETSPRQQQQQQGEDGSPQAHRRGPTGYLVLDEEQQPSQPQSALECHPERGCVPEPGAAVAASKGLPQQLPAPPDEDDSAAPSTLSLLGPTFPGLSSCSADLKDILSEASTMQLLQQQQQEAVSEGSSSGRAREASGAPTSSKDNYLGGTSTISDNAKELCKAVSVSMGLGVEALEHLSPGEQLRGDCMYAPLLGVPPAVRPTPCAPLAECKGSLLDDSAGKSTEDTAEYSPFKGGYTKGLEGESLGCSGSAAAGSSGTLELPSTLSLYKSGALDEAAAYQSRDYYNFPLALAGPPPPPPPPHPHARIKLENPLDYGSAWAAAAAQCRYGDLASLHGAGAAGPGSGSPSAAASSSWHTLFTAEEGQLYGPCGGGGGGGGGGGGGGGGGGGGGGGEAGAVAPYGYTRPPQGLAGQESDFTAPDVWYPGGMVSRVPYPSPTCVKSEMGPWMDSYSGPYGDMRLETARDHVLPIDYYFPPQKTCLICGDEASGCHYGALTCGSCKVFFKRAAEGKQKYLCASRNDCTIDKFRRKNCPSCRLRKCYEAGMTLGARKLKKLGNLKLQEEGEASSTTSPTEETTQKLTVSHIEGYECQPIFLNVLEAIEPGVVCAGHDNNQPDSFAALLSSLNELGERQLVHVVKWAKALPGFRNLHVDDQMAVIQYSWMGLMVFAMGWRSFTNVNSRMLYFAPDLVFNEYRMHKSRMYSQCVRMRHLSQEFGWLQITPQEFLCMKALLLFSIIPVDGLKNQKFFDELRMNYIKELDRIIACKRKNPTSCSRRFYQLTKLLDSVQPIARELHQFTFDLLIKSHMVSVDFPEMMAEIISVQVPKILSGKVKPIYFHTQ
Description: (§1) Polyarylethersulfone of 55,000 Da were obtained from INGE.BASF, Germany. The CALUX cell lines have been described previously.[1] They are based on human U2-OS cells (ATCC, HTB-96) stably transfected with an expression construct for the full-length human receptor under investigation, and a reporter construct consisting of multimerized responsive elements for the cognate receptor coupled to a minimal promoter element (TATA) and a luciferase gene. Cells were maintained as described previously,[2] using cell culture media and supplements from Fisher Scientific as described in the experimental procedures section. […]
(§2) In vitro reporter gene assays
(§3) The automated CALUX assays were carried out similarly as described earlier,[12] with some adaptations. In brief, the assay was performed in CO2 independent medium (Fisher Scientific, […]
(§4) with 30 µl cell suspension/well. After 24 h, exposure medium was prepared. A dilution series in 0.5log unit increments of each test compound (in DMSO) was added to a 96-wells plate containing assay medium (2% v/v). Of this exposure mixture, 30 µl was added to the assay plates containing the CALUX cells, resulting in a final DMSO concentration of 1%. Additionally, DMSO blanks and a full dose response curve of the relevant reference compound were included on each plate. All samples were tested in triplicate. The preparation of the compound dilution series as well as the exposure of the cells were performed on a Hamilton StarLET liquid handling robot coupled to a Cytomat incubator.
Directly after exposure, plates were sealed with non-breathing plate seals (Plate sealer, easy seal […]
After 24 h the exposure medium was removed using an EL406 washer-dispenser (BioTek) and 10 µl/well triton lysisbuffer was added by the EL406.
(§5) Subsequently, the luciferase signal was measured in a luminometer (InfinitePro coupled to a Connect Stacker, both TECAN). In order to be able to detect receptor antagonism, several assays were also performed in antagonistic mode. The assay procedure was as described above, with the only exception that the EC50 concentration of the reference agonist was present during the exposure.
The luminometer data was analysed as follows; the average of the triplicate wells was determined, […]

[2] = test system: Nrf2; test: Nrf2 CALUX assay (oxidative stress); assay type: cell-based, human; parameters: key: –: no effect observed up to the highest test concentration; settings: cell signaling pathway assay, 24 h exposure
Description: Six of the CALUX assays (TCF through p53) detect activation of several cellular signaling pathways, which are indicative of general stress and acute toxicity, but also a range of more specific types of toxicity, including reproductive toxicity. […]
DCM ≥99.5%, chloroform ≥99.5%, DMSO ≥99.0% were purchased from VWR. […]
as §1, §2, §3
as §4, with “supplement (Fisher Scientific, 11574466), 10 U/mL penicillin and 10 µg/mL streptomycin. A cell suspension in assay medium was made of 1 × 10^5cells/mL, and white 384-wells plates were seeded with” for “with”
Directly after exposure, plates were sealed with non-breathing plate seals (Plate sealer, easy seal transparent; Greiner-Bio-One, 676001). After 24 h the exposure medium was removed using an EL406 washer-dispenser (BioTek) and 10 µl/well triton lysisbuffer was added by the EL406.
as §5
The luminometer data was analysed as follows; the average of the triplicate wells was determined, and the average blank (DMSO) value was subtracted. For receptor-based assays the maximum response elicited by the reference compound was set to 100% (full receptor- or pathway activation), and the other values were scaled accordingly. GraphPad Prism was used to fit a sigmoidal curve through the data (four parameters, variable slope). […] For antagonist- and cytotoxicity experiments, PC20 values were determined instead, which was defined as the concentration where the test compound causes a 20% decrease in the basal signal, which was […]
curve, the signal induction above background (DMSO) was determined, and the concentration where the compound elicited a 1.5-fold increase above background was used as LEC.

LEC AR‐anti [1] | SMILES | LEC Nrf2 [2]
– | CCCCN(CC)C(=O)CCC(=O)N(CC)CCCC [EBSA, N,N′‐diethyl‐N,N′‐dibutylsuccindiamide] | –
– | CCCCN(C)C(=O)CCC(=O)N(C)CCCC [MBSA, N,N′‐dimethyl‐N,N′‐dibutylsuccindiamide] | −2.9 Log M
– | CCCCN1CCCC1=O [NBP, N‐Butylpyrrolidinone, reference compound] | –
– | CCCCN(CCCC)C(=O)CCC(=O)N(CCCC)CCCC [TBSA, N,N,N′,N′‐tetrabutylsuccindiamide] | –
 | CN1CCCC1=O [NMP, N‐methyl‐2‐pyrrolidone, reference compound] | –
